Test system: oxidation of the L-DOPA under the action of the bacterial extract (intracellular extract of Cutibacterium acnes CIP 53.117)
Assay: In vitro evaluation of the ability to inhibit the development of the colour (absorbance at 475 nm of L-DOPA + Cutibacterium acnes extract)
Format: biochemical
Conditions: for optical density at 475 nm: 32° C.; for % inhib (percentage of inhibition of the formation of the coloured product): from initial rate of oxidation between 10 and 40 minutes vs reference composition
Excerpt: This method is based on the measurement of absorbance, over time, carried out directly on a composition formed of a mixture of intracellular extract of bacteria of Cutibacterium acnes type, of 3,4-dihydroxy-L-phenylalanine (L-DOPA) and of a test compound. The measurements are compared with those carried out for a mixture of an intracellular extract of bacteria of Cutibacterium acnes type and of 3,4-dihydroxy-L-phenylalanine (L-DOPA), in the absence of test compound (reference). The method is adapted from a method for the enzymatic assay of the tyrosinase activity (Behbahani et al., Microchemical Journal (1993), 47, 251), which is based on the absorbance properties at 475 nm of a coloured intermediate of the pathway for the biosynthesis of melanin starting from L-DOPA, namely dopachrome, a product of the oxidation of L-DOPA. An intracellular extract of bacteria of Cutibacterium acnes CIP 53.117 type stored at 4° C. in the lyophilized form is suspended in 1×PBS (supplied by Gibco BRL Life Technologies) at a concentration of 6 mg/ml. A solution of L-DOPA at a concentration of 0.5 mg/ml is prepared by bringing together L-DOPA (supplied by Sigma-Aldrich) and milliQ water, so as to have an L-DOPA concentration of 1 mg/ml, then diluting with 1×PBS (Dulbecco's Phosphate Buffered Saline, supplied by Gibco BRL Life Technologies). The mixture of 50 μl of these two solutions and of 100 μl of 1×PBS (Dulbecco's Phosphate Buffered Saline, supplied by Gibco BRL Life Technologies) results in a composition with a total volume of 200 μl containing L-DOPA (at a concentration of 125 μg/ml) and Cutibacterium acnes extract (at a concentration of 1.5 mg/ml). The test compositions and the reference composition are introduced separately into wells of a 96-well microplate suitable for reading in visible spectrophotometry, and placed at a temperature of 32° C. The formation of a coloured product is monitored over time by spectrophotometry. To do this, the absorbance, or optical density (O.D.), is measured at 475 nm from the time 0 to the time 2 hours by means of a Spectra Max M5e reader and the Spectra Max software (the time 0 corresponds to the introduction of the composition into the wells). The ability to inhibit the development of the colour of a given compound was assessed by comparing the absorbance measurements obtained for the test compositions with those obtained for the reference composition. More specifically, the inhibitory effect of the test compound was evaluated by comparing the initial rate of oxidation of the L-DOPA under the action of the bacterial extract at 475 nm for the test composition with that of the reference composition in order to obtain a corresponding percentage of inhibition. In practice, the initial rate (Vi) of the oxidation reaction is calculated from the linear part of the curve of the graph of the absorbance values. As this part lies between 10 and 40 minutes (see the graph in FIG. 1), the initial rate of the oxidation reaction is determined using the following relationship: [formula] The percentage of inhibition (% inhib) of a given compound with regard to the formation of the coloured product is subsequently obtained using the values of the initial rate of the oxidation reaction for the reference composition (Viref) and for the test composition ([…]) according to the following relationship: [formula] Within the meaning of the invention, a compound is regarded as having an inhibitory effect if the % inhib value is at least 15%.

Compound: CCOC(=O)CNC(=O)c1ccc[nH]c1=S [Compound 5, Ethyl N-[(2-thioxo-1,2-dihydropyridin-3-yl)carbonyl]glycinate]
- inhibiting the development of the colour (result in words) (compared with Reference (absence of treatment)): very effective
- optical density at 475 nm (test compound 12.5 μM, duration 0 minutes): 0.0531
- optical density at 475 nm (test compound 12.5 μM, duration 10 minutes): 0.0535
- optical density at 475 nm (test compound 12.5 μM, duration 20 minutes): 0.0550
- optical density at 475 nm (test compound 12.5 μM, duration 30 minutes): 0.0559
- optical density at 475 nm (test compound 12.5 μM, duration 40 minutes): 0.0572
- optical density at 475 nm (test compound 12.5 μM, duration 60 minutes): 0.0601
- optical density at 475 nm (test compound 12.5 μM, duration 80 minutes): 0.0636
- optical density at 475 nm (test compound 12.5 μM, duration 100 minutes): 0.0659
- optical density at 475 nm (test compound 12.5 μM, duration 120 minutes): 0.0674
- % inhib (percentage of inhibition of the formation of the coloured product) (test compound 12.5 μM): 57%
- optical density at 475 nm (test compound 25 μM, duration 0 minutes): 0.0559
- optical density at 475 nm (test compound 25 μM, duration 10 minutes): 0.0567
- optical density at 475 nm (test compound 25 μM, duration 20 minutes): 0.0572
- optical density at 475 nm (test compound 25 μM, duration 30 minutes): 0.0575
- optical density at 475 nm (test compound 25 μM, duration 40 minutes): 0.0578
- optical density at 475 nm (test compound 25 μM, duration 60 minutes): 0.0588
- optical density at 475 nm (test compound 25 μM, duration 80 minutes): 0.0602
- optical density at 475 nm (test compound 25 μM, duration 100 minutes): 0.0627
- optical density at 475 nm (test compound 25 μM, duration 120 minutes): 0.0651
- % inhib (percentage of inhibition of the formation of the coloured product) (test compound 25 μM): 87%
- optical density at 475 nm (test compound 50 μM, duration 0 minutes): 0.0539
- optical density at 475 nm (test compound 50 μM, duration 10 minutes): 0.0554
- optical density at 475 nm (test compound 50 μM, duration 20 minutes): 0.0557
- optical density at 475 nm (test compound 50 μM, duration 30 minutes): 0.0560
- optical density at 475 nm (test compound 50 μM, duration 40 minutes): 0.0565
- optical density at 475 nm (test compound 50 μM, duration 60 minutes): 0.0573
- optical density at 475 nm (test compound 50 μM, duration 80 minutes): 0.0579
- optical density at 475 nm (test compound 50 μM, duration 100 minutes): 0.0585
- optical density at 475 nm (test compound 50 μM, duration 120 minutes): 0.0593
- % inhib (percentage of inhibition of the formation of the coloured product) (test compound 50 μM): 87%
- optical density at 475 nm (test compound 100 μM, duration 0 minutes): 0.0532
- optical density at 475 nm (test compound 100 μM, duration 10 minutes): 0.0534
- optical density at 475 nm (test compound 100 μM, duration 20 minutes): 0.0548
- optical density at 475 nm (test compound 100 μM, duration 30 minutes): 0.0550
- optical density at 475 nm (test compound 100 μM, duration 40 minutes): 0.0550
- optical density at 475 nm (test compound 100 μM, duration 60 minutes): 0.0555
- optical density at 475 nm (test compound 100 μM, duration 80 minutes): 0.0557
- optical density at 475 nm (test compound 100 μM, duration 100 minutes): 0.0561
- optical density at 475 nm (test compound 100 μM, duration 120 minutes): 0.0563
- % inhib (percentage of inhibition of the formation of the coloured product) (test compound 100 μM): 82%
